This data set in a line: in vitro. The following applies: human, hela cells, % viability.

`Cc1[nH]c(=O)[nH]c(=O)c1CC(=O)NCC1CCN(c2ccccc2F)C1` (centres unmarked) [CBK304325]: the viability at 28.5 h, 10 µM amounted to 99.7%.

As to `Cn1nc2c(cc1=O)CN(C(=O)c1ccoc1)CC2` [CBK304330], the viability at 28.5 h, 10 µM is 119%.

Regarding `Cc1nc(CC(=O)NCc2cccnc2N2CCOCC2)cs1` [CBK304331], the viability at 28.5 h, 10 µM came to 98.7%.

`CC(=O)N1CCc2c(sc(NC(=O)c3ccc(N(C)C)cc3)c2C#N)C1` [CBK304333]: the viability at 28.5 h, 10 µM is 94.7%. `Cc1cc(C)cc(CNC(=O)N(CCCO)Cc2ccncc2)c1` [CBK304335]: the viability at 28.5 h, 10 µM turned out to be 93.7%. In the case of `CC(C)CNC(=O)C1CCN(C(=O)c2cccc(F)c2)CC1` [CBK304338], the viability at 28.5 h, 10 µM was 112%. On to `Cc1nc(CC(=O)Nc2ccc(N3CCOCC3)cc2)cs1` [CBK304339], for which the viability at 28.5 h, 10 µM was found to be 95.8%.

Take `Cc1c(CN(C)CC(=O)Nc2cccc(C(F)(F)F)c2)cnn1C` [CBK304341]: the viability at 28.5 h, 10 µM stood at 85%. Under `Cn1nc2c(cc1=O)CN(C(=O)c1ccc3cc[nH]c3c1)CC2` [CBK304343] stands 93.8%; under `Cn1c(C(=O)NC2CCOC(C)(C)C2)cc2ccccc21` (centres unmarked) [CBK304344], 91.7%; under `CCS(=O)(=O)Nc1ccc(C(=O)N2CCN(c3ccccc3)CC2)cc1` [CBK304345], 112%. Turning to `Cc1cccn2cc(CNC(=O)C(C)(C)C)nc12` [CBK304348], the viability at 28.5 h, 10 µM came to 83.9%. The figure for `Cc1ccc(C(C)NC(=O)C2CCCN(S(C)(=O)=O)C2)c(C)c1` (centres unmarked) [CBK304349] is 94.1%; for `CSCCC(NC(=O)CCc1ccccc1)c1nnc2ccccn12` (centres unmarked) [CBK304350] it is 95.4%; for `CC(C)Nc1ccc(C(=O)N2CCC(N3CCOCC3)CC2)cn1` [CBK304353] it is 105%.

As for `Cc1cc(C(=O)N2CCC(c3nccn3C)CC2)ccc1F` [CBK304355], the viability at 28.5 h, 10 µM worked out at 89.7%. As to `Cc1nn(CC(=O)N(C)Cc2cnccn2)c(=O)c2ccccc12` [CBK304356], the viability at 28.5 h, 10 µM is 97.6%. The figure for `Cc1ccc(C)c(NC(=O)CCc2c(C)nn3cnnc3c2C)c1` [CBK304358] is 90%. For `COCC1(C(=O)N2CCN(c3ccccc3C#N)CC2)CCC1` [CBK304361], the viability at 28.5 h, 10 µM was 93%. For the compound `CC(C)n1ccc2cc(C(=O)NC3CCOC(C)(C)C3)ccc21` (centres unmarked) [CBK304366], the viability at 28.5 h, 10 µM worked out at 90.6%. Take `COc1ccnc(N2CCN(C(=O)c3ccncc3Cl)CC2)n1` [CBK304367]: the viability at 28.5 h, 10 µM turned out to be 102%. `COCCN(CC1CC1)C(=O)NCc1cccc(Cl)c1` [CBK304368]: the viability at 28.5 h, 10 µM stood at 93.4%.

In the case of `O=C1CN(C(=O)c2cc(-c3ccncc3)nc3ccccc23)CCN1` [CBK304370], the viability at 28.5 h, 10 µM is 104%. The figure for `CCCOC(=O)Cn1cnc2sc(C)c(C)c2c1=O` [CBK304371] is 88.9%; for `COc1ccc(C(=O)N2CCN(c3ncnc4onc(C)c34)CC2)cc1` [CBK304372] it is 93.5%. Take `OCC1COCCN(c2ncnc3c2CCC3)C1` (centres unmarked) [CBK304373]: the viability at 28.5 h, 10 µM came out at 103%.

In the case of `Cc1ccc2cc(C(=O)N3CCCCC3CN3CCOCC3)[nH]c2c1` (centres unmarked) [CBK304374], the viability at 28.5 h, 10 µM was 90.4%.

For the compound `O=C(c1cc(S(=O)(=O)N2CCOCC2)ccc1Cl)N1CCCCC1` [CBK304377], the viability at 28.5 h, 10 µM turned out to be 94.1%.

With `COc1ccnc(Cn2ncc(N3CCCC3)cc2=O)c1` [CBK304379], the viability at 28.5 h, 10 µM stood at 87.5%. Consider `O=C(NCCn1cccn1)N1CCC(Cc2ccc(F)cc2)CC1` [CBK304381], for which the viability at 28.5 h, 10 µM was 91.7%. Turning to `CCn1c(C)nnc1SCC(=O)Nc1cc(C(F)(F)F)ccc1Cl` [CBK304382], the viability at 28.5 h, 10 µM was 91.7%. On to `COCCN1CC(CNC(=O)c2cccc(F)c2O)CC1=O` (centres unmarked) [CBK304386], for which the viability at 28.5 h, 10 µM was 107%. Take `O=C(NCC(c1ccco1)N1CCCC1)N1CCc2ccccc2C1` (centres unmarked) [CBK304392]: the viability at 28.5 h, 10 µM was determined as 98.8%. The figure for `Cn1cc(NC(=O)C2CCCN(c3ncccn3)C2)cn1` (centres unmarked) [CBK304394] is 108%; for `CC(=O)c1cccc(NC(=O)Cn2ncc(N3CCCC3)c(Cl)c2=O)c1` [CBK304395] it is 89.5%; for `Cc1cnn(C)c1CN1CCC(C(N)=O)(N2CCCCC2)CC1` [CBK304400] it is 89.4%. Under `CNC(=O)c1cc(NC(=O)NCC2CC(=O)N(CCOC)C2)ccc1F` (centres unmarked) [CBK304403] stands 107%; under `CCOC(=O)C1CCCN(c2c(C#N)cnc3ccc(Cl)cc23)C1` (centres unmarked) [CBK304405], 85.8%.

Take `Cc1cc(C)n2nc(CC(=O)N3CCCC3c3ccccn3)nc2n1` (centres unmarked) [CBK304408]: the viability at 28.5 h, 10 µM was 90.8%. As to `CCC(CC)C(=O)N1CCn2c(nnc2-c2cncc(Br)c2)C1` [CBK304409], the viability at 28.5 h, 10 µM is 96.1%. Under `CC(=O)N1CCc2c(sc(NC(=O)c3ccc(C)cc3)c2C#N)C1` [CBK304411] stands 52.6%. For `CCOC(=O)C1CCCN(Cc2ccc(OC)cc2)C1` (centres unmarked) [CBK304413], the viability at 28.5 h, 10 µM stood at 88.3%. Regarding `Cc1cc(C)n(CCCC(=O)NCCc2cn3ccccc3n2)n1` [CBK304414], the viability at 28.5 h, 10 µM came to 94.6%. For the compound `N#Cc1cccnc1N1CC(C(=O)O)C2(CCC2)C1` (centres unmarked) [CBK304415], the viability at 28.5 h, 10 µM is 93.7%.

On to `CSCCC(NC(=O)NCCc1ccccc1)c1nnc2ccccn12` (centres unmarked) [CBK304417], for which the viability at 28.5 h, 10 µM came to 102%. Regarding `CCNC(=O)N1CCC(NS(=O)(=O)c2cnc3ccccc3c2)C1` (centres unmarked) [CBK304419], the viability at 28.5 h, 10 µM was 85.3%. In the case of `Cc1c(C(=O)N2CCCCC2C(N)=O)nnn1Cc1ccc(F)cc1F` (centres unmarked) [CBK304425], the viability at 28.5 h, 10 µM was found to be 93.7%. For `Cc1csc2c(N3CCCC3CC(=O)c3cnn(C)c3)ncnc12` (centres unmarked) [CBK304429], the viability at 28.5 h, 10 µM was found to be 81.8%. As to `CCOc1cc(NC2CCN(C(=O)C(C)(C)C3CCCC3)CC2)ncn1` [CBK304430], the viability at 28.5 h, 10 µM came to 91.2%. In the case of `Cc1ccc(Cc2cnc(NC(=O)NC3CCOCC3)s2)cc1Cl` [CBK304440], the viability at 28.5 h, 10 µM is 82.2%. As to `CC1CCc2c(C(=O)N3CC(C)OC(C)C3)csc2C1` (centres unmarked) [CBK304442], the viability at 28.5 h, 10 µM was found to be 106%. The figure for `CC(C)c1csc(CNC(=O)NC2CCCN(c3ccn(C)n3)C2=O)n1` (centres unmarked) [CBK304447] is 83.6%; for `Cc1cc(C)n(CCN2CCC(N(C)Cc3nnc(C)n3C)C2)n1` (centres unmarked) [CBK304449] it is 94.3%. Under `Cc1nnc(CN(C)C2CCN(Cc3ccc4c(c3)CCC4)C2)n1C` (centres unmarked) [CBK304450] stands 104%; under `Cc1nc(-c2cc3c(s2)CCN(CC(O)Cn2cccn2)C3)cs1` (centres unmarked) [CBK304458], 102%; under `COc1csc(C(=O)Nc2ncn(CC(=O)N3CCCCCC3)n2)c1` [CBK304463], 84.6%. Consider `CCCn1c(C)nnc1CN(CC1CCCO1)C1CCCC1` (centres unmarked) [CBK304465], for which the viability at 28.5 h, 10 µM came out at 94.8%. On to `Cc1cc(NC(=O)C(C)N(C)CCOc2ccccc2Cl)no1` (centres unmarked) [CBK304466], for which the viability at 28.5 h, 10 µM amounted to 107%. `CC(=O)c1cccc(NC(=O)N(Cc2ccco2)CC2CCCO2)c1` (centres unmarked) [CBK304467]: the viability at 28.5 h, 10 µM came out at 104%. The figure for `CN(CC(=O)NCc1ccco1)C1CCCCC1` [CBK304471] is 85.6%; for `CCc1nnc(CN(CC2CCCO2)C2CCC(C)CC2)n1C` (centres unmarked) [CBK304475] it is 106%.

For `CNCC1CCCN(C(=O)c2ccc(Oc3cccnc3)cc2)C1` (centres unmarked) [CBK304479], the viability at 28.5 h, 10 µM is 83.2%. For the compound `Cc1ccc(CCC(=O)N2CCNCC2C)c(C)c1` (centres unmarked) [CBK304481], the viability at 28.5 h, 10 µM came to 90%. As to `Cc1c(C(=O)N2CCC(F)(CO)C2)nnn1-c1ccc2ncccc2c1` (centres unmarked) [CBK304483], the viability at 28.5 h, 10 µM was 101%.

As to `Cc1c(C(=O)N(C)Cc2csc(Br)c2)nnn1C1CCNCC1` [CBK304491], the viability at 28.5 h, 10 µM came to 104%. Under `COc1ccc(C)cc1C1(CNC(=O)C2CC2C(=O)O)CCOCC1` (centres unmarked) [CBK304492] stands 82%; under `Cn1ccc(CN2CCOC(c3nc(C(C)(C)C)n[nH]3)C2)cc1=O` (centres unmarked) [CBK304495], 84.5%; under `CC(C)Oc1ccc(C(=O)N2CC(C)C(N3CCOCC3)C2)cn1` (centres unmarked) [CBK304497], 110%. For `CCc1nsc(N2CCC(Oc3cccnc3N(C)C)C2)n1` (centres unmarked) [CBK304498], the viability at 28.5 h, 10 µM turned out to be 110%. For the compound `Cc1cc(S(=O)(=O)NC(=O)CC2CCOc3ccccc32)c(C)o1` (centres unmarked) [CBK304499], the viability at 28.5 h, 10 µM turned out to be 105%. In the case of `CNCC1CCCN1S(=O)(=O)c1ccc(OCc2ncnn2C)cc1` (centres unmarked) [CBK304500], the viability at 28.5 h, 10 µM is 90%. Take `CCn1cc(NC(=O)CC(C)(O)c2ccccc2)ccc1=O` (centres unmarked) [CBK304507]: the viability at 28.5 h, 10 µM worked out at 91.7%.

Take `CCc1nn(C)cc1CN1CCOC(c2nc(C(C)(C)C)cs2)C1` (centres unmarked) [CBK304513]: the viability at 28.5 h, 10 µM was determined as 104%.

For the compound `CCOC(=O)C1CCCN(C(=O)CCn2c(=O)oc3cc(Cl)ccc32)C1` (centres unmarked) [CBK304516], the viability at 28.5 h, 10 µM turned out to be 93.8%. The figure for `NC(=O)C1CCN(C(=O)Cc2csc(COc3ccc(Cl)cc3)n2)CC1` [CBK304519] is 81.9%; for `Cc1cc(NC(=O)CS(=O)(=O)Cc2cccc(C(F)(F)F)c2)no1` [CBK304520] it is 99.3%.

Regarding `CC(C)(C)OC(=O)N1CCCC(C(=O)Nc2ccccn2)C1` (centres unmarked) [CBK304524], the viability at 28.5 h, 10 µM is 95.4%.

Turning to `CC(C)(C)c1cc(NC(=O)CN2CCN(c3cccc(Cl)c3)CC2)on1` [CBK304525], the viability at 28.5 h, 10 µM turned out to be 85.7%. Under `CCOc1ncccc1C(=O)NCc1ccc(COCC(F)(F)F)cc1` [CBK304526] stands 97.8%. For the compound `CCOc1ccc(CN2CCN(C(=O)c3cccc(C#N)c3)CC2)cc1` [CBK304527], the viability at 28.5 h, 10 µM came out at 93.5%.

Consider `Cc1ccnc2nc(C(=O)OC(C)C(=O)c3ccc4c(c3)CCC4)nn12` (centres unmarked) [CBK304528], for which the viability at 28.5 h, 10 µM came out at 89.5%. Under `COc1ccccc1-c1cnn2c(NCC3CCCO3)cc(C)nc12` (centres unmarked) [CBK304529] stands 84.5%; under `COc1ccccc1-c1cc2nc(C)cc(N3CCOCC3)n2n1` [CBK304532], 88.7%.

The term viability denotes a read-out of living cells in per cent, often relative to untreated cells.

Source of the values: paper PMC12040169 (PLOS Biology, 2025).
